Results reported in paper PMC9081329, “Pharmacokinetics, Mass Balance, Excretion, and Tissue Distribution of Plasmalogen Precursor PPI-1011” (Frontiers in Cell and Developmental Biology, 2022).
Read-outs that look alike come from different tables or passages of the source.

Experiments:
[1] = Formulation concentration; type: physicochemical
[2] = design: method as in manuscript in preparation; conditions: doses up to 1,000 mg/kg in adult rats; ref manuscript in preparation; cited from earlier work
[3] = design: method as in manuscript in preparation; conditions: 28-day repeat dosing at 400 mg/kg in primates; ref manuscript in preparation; cited from earlier work

Structure (SMILES): CC/C=C\C/C=C\C/C=C\C/C=C\C/C=C\C/C=C\CCC(=O)OC(COCCCCCCCCCCCCCCCC)COC(=O)CCCCC1CCSS1 (stereo not drawn) [PPI-1011, 1-O-hexadecyl-2-O-cis-4,7, 10, 13, 16, 19-docosahexaenoyl-3-O-lipoyl glycerol]
- Concentration amenable to formulation [1]: ≤ 500000 µg/mL
- Toxicity or adverse effects [2]: no toxicity or adverse effects
- Toxicity or adverse effects [3]: no toxicity or adverse effects
